The source made the active and inactive calls.
What was measured:
Cytochrome P450 2C19 = Cytochrome P450 2C19 (Homo sapiens, UniProt P33261); experiment: Cytochrome panel assay with activity outcomes. Panel member name: p450-cyp2c19 Compounds with AC50 equal or less than 10 uM are considered active; type: functional; conditions: read-out: AC50
Cytochrome P450 2D6 = Cytochrome P450 2D6 (Homo sapiens, UniProt P10635);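 note: CYP2D6 member of a cytochrome P450 panel assay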
Cytochrome P450 3A4 = Cytochrome P450 3A4 (Homo sapiens, UniProt P08684);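 note: CYP3A4 tested as one member of a cytochrome P450 panel screen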
[1] = NIH3T3 cell viability loss – ATP luminescence, mouse fibroblasts, counter-screen, dose response (AID 2010); type: functional, cell-based;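 note: cells exposed to compound for about 90 hours before reading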
[2] = Trypanosoma cruzi growth suppression in host cells – NIH3T3 host cells, beta-gal luminescence, confirmation (AID 2044); type: functional, cell-based;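 note: intracellular parasites grown in NIH/3T3 mouse fibroblasts as host cells; luminescent beta-galactosidase reporter signal from transgenic T. cruzi replicating inside host cells; inhibitors lower the luminescence signal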
[3] = tested on: Streptococcus sp. 'group A'; experiment: Streptococcus pyogenes SK(-)GAS viability under kanamycin – luminescence, BacTiterGlo, confirmation, counter-screen for streptokinase expression inhibitor project, dose response (AID 1900); type: functional, organism-based
Streptococcus = experiment: GAS UMAA2166 growth inhibition – luminescence, BacTiterGlo, counter-screen for streptokinase expression inhibitor project, dose response (AID 1915); type: functional, organism-based;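 note: potency for reduction of bacterial viability or growth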
Streptokinase A = molecular target: T1, Streptokinase A (Streptococcus pyogenes serotype M1, UniProt P10520); experiment: viability-normalized secreted streptokinase activity reduction – plasminogen activation absorbance, OD405, dose response (AID 1914); type: functional, Streptococcus pyogenes M1 GAS;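 note: secreted streptokinase activity via plasminogen activation per viability signal from cell pellet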
T1 sequence (P10520 whole entry): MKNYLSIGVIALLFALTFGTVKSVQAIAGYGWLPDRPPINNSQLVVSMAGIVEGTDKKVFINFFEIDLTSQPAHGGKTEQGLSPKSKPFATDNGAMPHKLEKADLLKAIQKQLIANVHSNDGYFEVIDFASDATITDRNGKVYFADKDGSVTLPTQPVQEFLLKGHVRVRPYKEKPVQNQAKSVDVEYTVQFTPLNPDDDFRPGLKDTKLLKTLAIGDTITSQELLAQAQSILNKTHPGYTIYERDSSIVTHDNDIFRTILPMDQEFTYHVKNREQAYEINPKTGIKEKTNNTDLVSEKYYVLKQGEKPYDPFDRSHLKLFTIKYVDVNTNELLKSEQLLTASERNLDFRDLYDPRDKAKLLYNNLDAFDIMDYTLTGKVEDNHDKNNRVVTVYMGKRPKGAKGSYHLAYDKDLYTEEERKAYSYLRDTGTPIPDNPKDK

Chain of Cytochrome P450 2C19 (P33261 whole entry): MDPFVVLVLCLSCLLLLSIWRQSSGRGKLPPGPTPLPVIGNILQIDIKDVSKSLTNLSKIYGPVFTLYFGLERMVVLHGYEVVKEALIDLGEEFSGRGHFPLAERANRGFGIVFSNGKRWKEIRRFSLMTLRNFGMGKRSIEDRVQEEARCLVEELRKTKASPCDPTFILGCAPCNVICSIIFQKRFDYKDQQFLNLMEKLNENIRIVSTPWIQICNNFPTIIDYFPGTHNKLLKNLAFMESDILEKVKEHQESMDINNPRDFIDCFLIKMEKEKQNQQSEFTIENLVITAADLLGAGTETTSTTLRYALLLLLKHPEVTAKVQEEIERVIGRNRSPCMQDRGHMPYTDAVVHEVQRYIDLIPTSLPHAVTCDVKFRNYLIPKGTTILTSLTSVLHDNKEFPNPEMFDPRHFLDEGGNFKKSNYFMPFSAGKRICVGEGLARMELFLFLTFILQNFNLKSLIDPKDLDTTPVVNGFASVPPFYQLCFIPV
Chain of Cytochrome P450 2D6 (P10635 whole entry): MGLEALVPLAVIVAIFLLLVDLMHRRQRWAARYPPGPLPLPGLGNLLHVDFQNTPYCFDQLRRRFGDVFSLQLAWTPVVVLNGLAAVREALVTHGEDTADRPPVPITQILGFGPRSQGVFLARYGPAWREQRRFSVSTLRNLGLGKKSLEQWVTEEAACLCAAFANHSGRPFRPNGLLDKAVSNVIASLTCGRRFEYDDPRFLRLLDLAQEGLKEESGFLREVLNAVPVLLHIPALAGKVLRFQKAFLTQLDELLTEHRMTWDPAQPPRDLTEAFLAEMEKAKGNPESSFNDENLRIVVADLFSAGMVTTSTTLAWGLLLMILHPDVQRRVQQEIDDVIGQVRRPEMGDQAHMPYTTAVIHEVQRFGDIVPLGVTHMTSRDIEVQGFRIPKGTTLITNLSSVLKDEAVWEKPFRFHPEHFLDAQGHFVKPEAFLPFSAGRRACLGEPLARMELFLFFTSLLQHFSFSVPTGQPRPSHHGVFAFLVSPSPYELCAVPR
Chain of Cytochrome P450 3A4 (P08684 whole entry): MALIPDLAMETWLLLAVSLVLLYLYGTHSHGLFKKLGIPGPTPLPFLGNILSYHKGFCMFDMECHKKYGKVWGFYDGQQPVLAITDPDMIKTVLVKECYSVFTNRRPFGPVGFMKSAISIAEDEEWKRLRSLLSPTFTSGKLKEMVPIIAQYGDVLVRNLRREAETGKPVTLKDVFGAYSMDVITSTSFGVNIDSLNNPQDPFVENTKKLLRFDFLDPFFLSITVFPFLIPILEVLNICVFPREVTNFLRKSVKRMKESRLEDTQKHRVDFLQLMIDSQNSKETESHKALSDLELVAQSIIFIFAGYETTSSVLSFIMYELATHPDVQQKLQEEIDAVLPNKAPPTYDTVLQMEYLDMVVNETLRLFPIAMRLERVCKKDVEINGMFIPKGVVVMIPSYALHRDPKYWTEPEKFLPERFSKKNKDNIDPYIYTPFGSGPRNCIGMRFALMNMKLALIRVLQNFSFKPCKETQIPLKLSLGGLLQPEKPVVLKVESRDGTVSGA

For COc1ccc(C2N=C(N)N=C(N)N2c2ccccc2OC)cc1OC (stereo not drawn), the AC50 (Cytochrome P450 2C19) was 39.8 µM (inconclusive).
With CC[C@]1(c2cccc(O)c2)CCCCN(C)C1 the AC50 (Cytochrome P450 2D6) was 10 µM (inconclusive).
In the case of COc1ccc(CNc2cc(-c3ccccc3Cl)ncn2)c(OC)c1, the AC50 (Cytochrome P450 2D6) is reported as 39.8 µM (inconclusive).
In the case of CN(C)c1ccc(/C=N\NC(=O)c2cnc3ccccc3c2)cc1, the AC50 (Cytochrome P450 3A4) is reported as 3.98 µM (inconclusive).
For Cc1nn(Cc2c(F)c(F)c(F)c(F)c2F)c(C)c1NC(=O)c1ccc(COc2ccc(Cl)cc2Cl)o1, the EC50 [1] was > 60 µM (not active) and the EC50 [2] was 1.11 µM (active).
For O=c1cnc2cnc(N3CCNCC3)nc2n1Cc1cccs1, the AC50 (Cytochrome P450 2D6) was 20 µM (inconclusive) and the AC50 (Cytochrome P450 3A4) was 15.8 µM (inconclusive).
For CC(CC(=O)Nc1nc2ccccc2[nH]1)c1ccccc1 (stereo not drawn), the EC50 [3] was > 150 µM (not active), the EC50 (Streptococcus) was > 150 µM (not active) and the EC50 (Streptokinase A) was > 150 µM (not active).
For Cc1ccccc1S(=O)(=O)c1c(C)cc(-c2ccccc2)nc1O, the AC50 (Cytochrome P450 3A4) was 28.2 µM (inconclusive).
In the case of CN(C)Cc1ccccc1-c1nccc(Nc2ccc(F)cc2)n1, the AC50 (Cytochrome P450 3A4) is reported as 15.8 µM (inconclusive).
With CCSc1nnc(NC(=O)c2nc(-c3ccccc3)n(-c3ccccc3)n2)s1 the EC50 [3] was 7.28 µM (active), the EC50 (Streptococcus) was 16.5 µM (active) and the EC50 (Streptokinase A) was 20.2 µM (active).
For CCC(=O)N(CCC(Cc1ccccc1)c1ccc2c(c1)OCO2)Cc1ccccc1F (stereo not drawn), the EC50 [3] was 12.2 µM (active), the EC50 (Streptococcus) was 40.3 µM (active) and the EC50 (Streptokinase A) was 10.7 µM (active).
For COc1ccc(/C=C2\SC(=O)N(CCNC(=O)C3CC(=O)N(c4ccccc4)C3)C2=O)cc1 (stereo not drawn), the AC50 (Cytochrome P450 2D6) was 20 µM (inconclusive).
In the case of CCCN1CCN(CCCNC(=O)Cn2nc(-c3ccc(C)cc3)ccc2=O)CC1, the AC50 (Cytochrome P450 2D6) is reported as 20 µM (inconclusive).
In the case of O=C(COc1cccnc1[N+](=O)[O-])N1N=C(c2ccc(Cl)cc2)CC1c1ccco1 (stereo not drawn), the EC50 [1] is reported as > 60 µM (not active) and the EC50 [2] is reported as 2.8 µM (active).
With CC(C)=CCC/C(C)=C/CO/N=C1/C[C@@H](O)[C@@H](O)[C@@H]2[C@H]3C(=O)N(c4ccc(F)cc4F)C(=O)[C@@H]3CC[C@H]12 the AC50 (Cytochrome P450 3A4) was 3.98 µM (inconclusive).
In the case of Cc1ccc(Sc2cc(C(=O)NCCCN(C)C)c3ccccc3n2)cc1, the EC50 [1] is reported as 14.6 µM (active) and the EC50 [2] is reported as 0.133 µM (active).
In the case of COc1ccc(N2CCN(CC(=O)Nc3nc4c(s3)CC(C)CC4)CC2)cc1 (stereo not drawn), the EC50 [3] is reported as 23.8 µM (active), the EC50 (Streptococcus) is reported as > 150 µM (not active) and the EC50 (Streptokinase A) is reported as > 150 µM (not active).
With O=C(COn1nnc2ccc(C(F)(F)F)cc21)Nc1nnc(-c2ccccc2)o1 the EC50 [3] was 2.77 µM (active) and the EC50 (Streptococcus) was 3.65 µM (active).
With Cc1cccc(-n2nc([N+](=O)[O-])c(NCc3cccnc3)[n+]2[O-])c1 the EC50 [1] was > 60 µM (not active), the EC50 [2] was 0.582 µM (active) and the AC50 (Cytochrome P450 2D6) was 12.6 µM (inconclusive).
For O=c1c(-c2ccc(F)cc2)nc2cncnc2n1-c1ccccc1, the AC50 (Cytochrome P450 2D6) was 20 µM (inconclusive) and the AC50 (Cytochrome P450 3A4) was 12.6 µM (inconclusive).
With CCCNC(=O)OC[C@@H]1O[C@H](c2ccccc2)C=C[C@@H]1Oc1ccc(OC)cc1 the AC50 (Cytochrome P450 2D6) was 3.16 µM (inconclusive).
For S=C(Nc1ccccc1)Nc1ccccc1C#Cc1ccccc1, the AC50 (Cytochrome P450 2D6) was 15.8 µM (inconclusive) and the AC50 (Cytochrome P450 3A4) was 7.94 µM (inconclusive).
For O=c1c(CCc2ccccc2)nc2cnc(N3CCNCC3)nc2n1C1CC1, the AC50 (Cytochrome P450 2D6) was 39.8 µM (inconclusive) and the AC50 (Cytochrome P450 3A4) was 12.6 µM (inconclusive).
For COc1cccc(-c2nccc(NCc3cccnc3)n2)c1, the AC50 (Cytochrome P450 2D6) was 25.1 µM (inconclusive).
With COC(=O)[C@@]1(Cc2ccc(OC)cc2)[C@H]2c3cc(C(=O)N4CCCC4)n(CCc4ccc(O)c(O)c4)c3C[C@H]2CN1C(=O)c1ccccc1 the AC50 (Cytochrome P450 2D6) was 39.8 µM (inconclusive).
In the case of O=C(Nc1ccccc1)N1CCCC2(CCN(C(=O)c3cccc(F)c3)CC2)C1, the AC50 (Cytochrome P450 2C19) is reported as 10 µM (inconclusive).
For COc1ccc(N2CC(C(=O)Nc3nnc(SCc4cccnc4)s3)CC2=O)cc1 (stereo not drawn), the EC50 [3] was > 150 µM (not active), the EC50 (Streptococcus) was > 150 µM (not active) and the EC50 (Streptokinase A) was > 150 µM (not active).
In the case of COc1ccccc1N1CCN(C/C=C/c2ccc(N(C)C)cc2)CC1, the EC50 [1] is reported as > 60 µM (not active) and the EC50 [2] is reported as 1.46 µM (active).
With Cc1ccc(C(c2nnnn2C2CCCC2)N2CCN3CCCC3C2)cc1 (stereo not drawn) the AC50 (Cytochrome P450 2C19) was 31.6 µM (inconclusive).
For Cn1nc(C(=O)NC2CCCCC2)c2ccccc2c1=O, the AC50 (Cytochrome P450 2D6) was 10 µM (inconclusive) and the AC50 (Cytochrome P450 3A4) was 5.01 µM (inconclusive).
With Cc1c(Cc2ccccc2)c(=O)oc2cc(OCc3ccc(C(=O)O)cc3)ccc12 the EC50 [3] was 7.39 µM (active), the EC50 (Streptococcus) was > 50 µM (not active) and the EC50 (Streptokinase A) was > 150 µM (not active).
With COc1cccc(CC2(CO)CCCN(C/C=C/c3ccccc3OC)C2)c1 (stereo not drawn) the EC50 [1] was > 60 µM (inconclusive) and the EC50 [2] was 0.209 µM (active).
For CCCCCC(=O)Nc1cccc(C2=NOC3(C2)C[C@@H](C(N)=O)N(C(=O)c2ccc(Cl)cc2)C3)c1 (stereo partly drawn), the EC50 [1] was > 30 µM (not active) and the EC50 [2] was 0.374 µM (active).
For Cc1cc(Br)ccc1NC(=O)CN1C(=O)C2C3CC(c4ccccc4)C(C3)C2C1=O (stereo not drawn), the EC50 [1] was > 60 µM (not active) and the EC50 [2] was 2.6 µM (active).
For Cc1ccc(S(=O)(=O)Nc2ccc(Cl)cc2)cc1NC(=O)c1cc2c(s1)CCCC2, the EC50 [1] was 25.8 µM (active), the EC50 [2] was 1.18 µM (active) and the EC50 [3] was 4.39 µM (active). The EC50 (Streptococcus) was 14.9 µM (active) and the EC50 (Streptokinase A) was > 150 µM (not active).
For COc1ccccc1-c1cc(-c2ccccc2)nc(SCC(=O)O)c1C#N, the EC50 [3] was 3.36 µM (active), the EC50 (Streptococcus) was 13.4 µM (active) and the EC50 (Streptokinase A) was 1.72 µM (active).
With C/C(CCN1CCCc2nc(C)c(C)cc21)=N\OC[C@@H](O)COCc1ccco1 the AC50 (Cytochrome P450 2D6) was 3.16 µM (inconclusive).
For COc1ccc2sc(N(CCCN(C)C)C(=O)c3ccc(S(=O)(=O)N4CCCc5ccccc54)cc3)nc2c1, the EC50 [1] was 5.35 µM (active) and the EC50 [2] was 0.139 µM (active).
For CCc1ncc(CO)n1Cc1cccc2ccccc12, the AC50 (Cytochrome P450 2C19) was 0.398 µM (inconclusive).
In the case of CNc1ccnc(-c2ccccc2C(F)(F)F)n1, the AC50 (Cytochrome P450 2C19) is reported as 25.1 µM (inconclusive) and the AC50 (Cytochrome P450 3A4) is reported as 25.1 µM (inconclusive).
In the case of COc1ccc(OC)c(-c2cc(C(=O)Nc3cccc(Cl)c3)no2)c1, the EC50 [1] is reported as > 30 µM (not active) and the EC50 [2] is reported as 2.43 µM (active).
In the case of CCCS(=O)(=O)N1CCCC(C(=O)NCCN(C)Cc2ccccc2)C1 (stereo not drawn), the AC50 (Cytochrome P450 2D6) is reported as 5.01 µM (inconclusive).
With N#Cc1cccc(NC(=O)N2CC[C@@]3(CCCNC3)C2)c1 the AC50 (Cytochrome P450 3A4) was 25.1 µM (inconclusive).
In the case of Cn1c(S)nnc1-c1cc(Br)ccc1O, the EC50 [3] is reported as 11 µM (active) and the EC50 (Streptococcus) is reported as > 150 µM (not active).
With COc1ccc(C2C(=O)N(CCc3ccccc3)CC(=O)N2C2CCCC2)cc1 (stereo not drawn) the AC50 (Cytochrome P450 2D6) was 14.1 µM (inconclusive).
For CN(C)c1ncc2nc(-c3cccs3)c(=O)n(Cc3cccs3)c2n1, the AC50 (Cytochrome P450 3A4) was 3.16 µM (inconclusive).
With COCCNc1nc(-c2ccc(N(C)C)cc2)nc2ccccc12 the AC50 (Cytochrome P450 2D6) was 39.8 µM (inconclusive).
For CC(C)(C)c1ccc(O)c(/N=C/c2c(O)ccc3ccccc23)c1, the EC50 [3] was 5.5 µM (active), the EC50 (Streptococcus) was > 150 µM (not active) and the EC50 (Streptokinase A) was > 150 µM (not active).
For Cc1ccc(C)c(/C=N/NC(=S)NCCc2ccccc2)c1, the EC50 [3] was 32.3 µM (active), the EC50 (Streptococcus) was > 150 µM (not active) and the EC50 (Streptokinase A) was > 150 µM (not active).
With Nc1cc(Cl)nc(N/N=C/c2ccccc2[N+](=O)[O-])n1 the AC50 (Cytochrome P450 2C19) was 8.91 µM (inconclusive).
With Cc1c(-c2ccc(O)cc2)nn(-c2ccc(O)cc2)c1-c1ccc(OCCN2CCCCC2)cc1 the AC50 (Cytochrome P450 3A4) was 3.16 µM (inconclusive).
With CCc1ccc(C2=Nn3c(nnc3-c3cccs3)SC2)cc1 the AC50 (Cytochrome P450 2C19) was 5.62 µM (inconclusive).

From ChEMBL document CHEMBL1201862, “PubChem BioAssay data set” (2004)
